# Measurements taken from patent US8686150B2 (Sanofi, priority 2011, dated 2014).
# Target: T1, human full-length recombinant PKC βII (Homo sapiens, UniProt P05771)
# T1 construct: Active human full-length recombinant PKC βII; purchased Invitrogen GmbH, Darmstadt, Germany
# Test: Determination of PKC βII inhibition (Caliper mobility-shift kinase assay, Fluorescein-RFARKGSLRQKNV peptide substrate)
# Type: biochemical
# Details: example compounds at a final concentration of 1.14 μM (±0.15 μM)
# Experimental: Determination of PKC βII Inhibition
# PKC βII Inhibition was Determined According to the Following Protocol:
# Active human full-length recombinant PKC βII and the peptide substrate, Fluorescein-RFARKGSLRQKNV, were purchased from Invitrogen GmbH, Darmstadt, Germany. Adenosine-5′-triphosphate (ATP), bovine serum albumine (BSA), dimethylsulphoxide (DMSO), 4-(2-hydroxyethyl)piperazine-1-ethanesulfonic acid (Hepes), Triton X-100, 1,2-Dioleoyl-sn-glycerol (DAG), L-G-Phosphatidyl-L-serine (PS), calcium chloride (CaCl2), and Pluronic F-68 were purchased from Sigma-Aldrich, Munich, Germany. Magnesium chloride, 1 M sodium hydroxide solution, 1M hydrochloric acid solution and EDTA were obtained from Merck Biosciences, Darmstadt, Germany.
# Test compounds were diluted to three times the test concentration in buffer 1 (30 mM Hepes-NaOH, pH 7.4, 0.01% Pluronic F-68 and 3% (v/v) DMSO). The PKC enzyme was diluted to a concentration of 30 ng/ml in buffer 2 (30 mM Hepes-NaOH, pH 7.4, 15 mM MgCl2, 150 μM CaCl2, 150 μg/ml PS, 60 μg/ml DAG, and 0.045% (w/v) Triton X-100). The peptide substrate and ATP were diluted to concentrations of 3 μM and 120 μM, respectively, in buffer 2. Two μl of the compound solution were mixed with 2 μl of the diluted enzyme in a 384-well small volume microtiter plate (Greiner, Bio-One, Frickenhausen, Germany), and the kinase reaction was initiated by addition of 2 μl of the solution containing peptide substrate and ATP. After 60 min incubation at 32° C., the reaction was stopped by addition of 20 μl of a solution containing 130 mM Hepes-NaOH, pH 7.4. 0.0195% (v/v) Brij-35, 6.5 mM EDTA. 0.13% chip coating reagent 3 (Caliper Lifescience Inc, Hopkinton, Mass.) and 6.5% (v/v) DMSO. Phosphorylation of the substrate peptide was then detected on a Caliper 3000 instrument essentially as described by Pommereau et al (J. Biomol. Screening 2004, 9(5), 409-416). Separation conditions were as follows: Pressure −0.8 psi, upstream voltage −3000 V, downstream voltage −800 V. Positive controls (buffer 1 instead of compound) and negative controls (buffer 1 instead of compound and buffer 2 instead of kinase solution) were run in parallel on each plate. Fractional turnover (R) was determined as the height of the peak of the phosphorylated peptide product divided by the sum of the unphosphorylated substrate and phosphorylated product peak heights. Percent-inhibition values for the test compounds were determined using the formula % Inhibition=100*(1−(Rcompound−Rnegative control)/(Rpositive control−Rnegative control).
# In the following table % inhibition values observed with example compounds at a final concentration of 1.14 μM (±0.15 μM) are listed: […]
# T1 sequence (P05771 1-673 isoform P05771-2): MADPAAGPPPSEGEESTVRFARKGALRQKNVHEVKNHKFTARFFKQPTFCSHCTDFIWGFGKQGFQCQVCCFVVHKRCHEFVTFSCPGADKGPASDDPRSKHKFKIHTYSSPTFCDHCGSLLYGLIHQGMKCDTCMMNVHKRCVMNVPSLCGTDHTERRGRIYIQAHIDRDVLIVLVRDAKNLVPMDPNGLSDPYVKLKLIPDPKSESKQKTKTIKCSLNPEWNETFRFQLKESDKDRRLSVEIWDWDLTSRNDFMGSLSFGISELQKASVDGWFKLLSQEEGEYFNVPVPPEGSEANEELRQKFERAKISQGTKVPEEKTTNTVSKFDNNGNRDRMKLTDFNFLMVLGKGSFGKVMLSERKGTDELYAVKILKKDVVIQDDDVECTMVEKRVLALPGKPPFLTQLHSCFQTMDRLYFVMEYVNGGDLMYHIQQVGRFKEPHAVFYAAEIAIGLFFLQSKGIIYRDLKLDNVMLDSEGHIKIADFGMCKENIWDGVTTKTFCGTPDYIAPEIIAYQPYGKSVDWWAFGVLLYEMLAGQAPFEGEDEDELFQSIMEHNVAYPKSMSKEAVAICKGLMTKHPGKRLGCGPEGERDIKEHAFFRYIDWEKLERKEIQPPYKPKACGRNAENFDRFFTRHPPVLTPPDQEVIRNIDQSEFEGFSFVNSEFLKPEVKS
Structure (SMILES),inhibition at 1.14 µM,% Inhibition
"O=C(N[C@@H]1CCCNC1)c1cc(-c2ccc(O)cc2)nc2[nH]nc(C(F)(F)F)c12 [Example 398, 6-(4-Hydroxy-phenyl)-3-trifluoromethyl-1H-pyrazolo[3,4-b]pyridine-4-carboxylic acid (R)-piperidin-3-ylamide]",21%,
"Cc1n[nH]c2nc(-c3ccc(O)c(Cl)c3)cc(C(=O)N3CCNCC3)c12 [Example 9, [6-(3-Chloro-4-hydroxy-phenyl)-3-methyl-1H-pyrazolo[3,4-b]pyridin-4-yl]-piperazin-1-yl-methanone]",41%,
"Cc1n[nH]c2nc(-c3ccc(O)cc3)cc(C(=O)N3CCNC(C)(C)C3)c12 [Example 198, (3,3-Dimethyl-piperazin-1-yl)-[6-(4-hydroxy-phenyl)-3-methyl-1H-pyrazolo[3,4-b]pyridin-4-yl]-methanone]",99%,
"Cc1n[nH]c2nc(-c3ccc(O)cc3)cc(C(=O)N3CCNC(c4ccccc4)C3)c12 (stereo not drawn) [Example 25, [6-(4-Hydroxy-phenyl)-3-methyl-1H-pyrazolo[3,4-b]pyridin-4-yl]-(3-phenyl-piperazin-1-yl)-methanone]",89%,
"O=C(N[C@@H]1CN2CCC1CC2)c1cc(-c2ccc(O)cc2)nc2[nH]nc(C(F)(F)F)c12 [Example 412, 6-(4-Hydroxy-phenyl)-3-trifluoromethyl-1H-pyrazolo[3,4-b]pyridine-4-carboxylic acid [(S)-1-aza-bicyclo[2.2.2]oct-3-yl]-amide]",23%,
"O=C(c1cc(-c2ccc(O)cc2)nc2[nH]nc(C(F)(F)F)c12)N1CCC2(CCNC2)CC1 [Example 410, (2,8-Diaza-spiro[4.5]dec-8-yl)-[6-(4-hydroxy-phenyl)-3-trifluoromethyl-1H-pyrazolo[3,4-b]pyridin-4-yl]-methanone]",20%,
"Cc1n[nH]c2nc(-c3ccc(O)cc3)cc(C(=O)N3CC4CCC3CN4)c12 (stereo not drawn) [Example 71, 2,5-Diaza-bicyclo[2.2.2]oct-2-yl-[6-(4-hydroxy-phenyl)-3-methyl-1H-pyrazolo[3,4-b]pyridin-4-yl]-methanone]",95%,
"O=C(c1cc(-c2ccc(O)cc2)nc2[nH]nc(C(F)(F)F)c12)N1CCNCC1 [Example 5, [6-(4-Hydroxy-phenyl)-3-trifluoromethyl-1H-pyrazolo[3,4-b]pyridin-4-yl]-piperazin-1-yl-methanone]",74%,
"Cc1n[nH]c2nc(-c3ccc(O)c(F)c3)cc(C(=O)NC3CC4CCC(C3)N4C)c12 [Example 318, 6-(3-Fluoro-4-hydroxy-phenyl)-3-methyl-1H-pyrazolo[3,4-b]pyridine-4-carboxylic acid (3R)-8-methyl-8-aza-bicyclo[3.2.1]oct-3-yl)-amide]",,61%
"Cc1n[nH]c2nc(-c3ccc(O)cc3)cc(C(=O)NCC(c3ccccc3)N3CCCC3)c12 (stereo not drawn) [Example 391, 6-(4-Hydroxy-phenyl)-3-methyl-1H-pyrazolo[3,4-b]pyridine-4-carboxylic acid (2-phenyl-2-pyrroiidin-1-yl-ethyl)-amide]",84%,
"Cc1n[nH]c2nc(-c3ccc(O)cc3F)cc(C(=O)N3CCC(C)(N)CC3)c12 [Example 418, (4-Amino-4-methyl-piperidin-1-yl)-[6-(2-fluoro-4-hydroxy-phenyl)-3-methyl-1H-pyrazolo[3,4-b]pyridin-4-yl]-methanone]",30%,
"CCc1n[nH]c2nc(-c3ccc(O)cc3)cc(C(=O)NC3CCN(C)CC3)c12 [Example 182, 3-Ethyl-6-(4-hydroxy-phenyl)-1H-pyrazolo[3,4-b]pyridine-4-carboxylic acid (1-methyl-piperidin-4-yl)-amide]",44%,
"Cc1n[nH]c2nc(-c3ccc(O)c(F)c3)cc(C(=O)NC3CC(C)(C)N(C)C(C)(C)C3)c12 [Example 364, 6-(3-Fluoro-4-hydroxy-phenyl)-3-methyl-1H-pyrazolo[3,4-b]pyridine-4-carboxylic acid (1,2,2,6,6-pentamethyl-piperidin-4-yl)-amide]",38%,

# More lines, main results first:
inhibition at 1.14 µM,Structure (SMILES),% Inhibition
60%,"Cc1n[nH]c2nc(-c3ccc(O)c(F)c3)cc(C(=O)N3CCC4(CC3)CNCCO4)c12 [Example 342, [6-(3-Fluoro-4-hydroxy-phenyl)-3-methyl-1H-pyrazolo[3,4-b]pyridin-4-yl]-(1-oxa-4,9-diaza-spiro[5.5]undec-9-yl)-methanone]",
89%,"Cc1n[nH]c2nc(-c3ccc(O)cc3)cc(C(=O)NCC3CNC3)c12 [Example 98, 6-(4-Hydroxy-phenyl)-3-methyl-1H-pyrazolo[3,4-b]pyridine-4-carboxylic acid (azetidin-3-ylmethyl)-amide]",
89%,"Cc1n[nH]c2nc(-c3ccc(O)cc3)cc(C(=O)N3CCC(C)(N)C3)c12 (stereo not drawn) [Example 122, (3-Amino-3-methyl-pyrrolidin-1-yl)-[6-(4-hydroxy-phenyl)-3-methyl-1H-pyrazolo[3,4-b]pyridin-4-yl]-methanone]",
93%,"Cc1n[nH]c2nc(-c3ccc(O)c(F)c3)cc(C(=O)N3CCNC(C)C3)c12 (stereo not drawn) [Example 303, [6-(3-Fluoro-4-hydroxy-phenyl)-3-methyl-1H-pyrazolo[3,4-b]pyridin-4-yl]-(3-methyl-piperazin-1-yl)-methanone]",
68%,"Cc1n[nH]c2nc(-c3ccc(O)cc3)cc(C(=O)NCC3CCC(=O)N3)c12 (stereo not drawn) [Example 278, 6-(4-Hydroxy-phenyl)-3-methyl-1H-pyrazolo[3,4-b]pyridine-4-carboxylic acid (5-oxo-pyrrolidin-2-ylmethyl)-amide]",
96%,"Cc1n[nH]c2nc(-c3ccc(O)cc3)cc(C(=O)N3CCNCC3c3ccco3)c12 (stereo not drawn) [Example 30, (2-Furan-2-yl-piperazin-1-yl)-[6-(4-hydroxy-phenyl)-3-methyl-1H-pyrazolo[3,4-b]pyridin-4-yl]-methanone]",
35%,"Cc1n[nH]c2nc(-c3ccc(O)c(F)c3)cc(C(=O)N3CC[C@@H](N(C)C)C3)c12 [Example 347, ((R)-3-Dimethylamino-pyrrolidin-1-yl)-[6-(3-fluoro-4-hydroxy-phenyl)-3-methyl-1H-pyrazolo[3,4-b]pyridin-4-yl]-methanone]",
68%,"COC[C@H]1CN(C(=O)c2cc(-c3ccc(O)c(F)c3)nc3[nH]nc(C)c23)CCN1 [Example 298, [6-(3-Fluoro-4-hydroxy-phenyl)-3-methyl-1H-pyrazolo[3,4-b]pyridin-4-yl]-((R)-3-methoxymethyl-piperazin-1-yl)-methanone]",
94%,"COc1cc(O)ccc1-c1cc(C(=O)N2CCNCC2)c2c(C)n[nH]c2n1 [Example 14, [6-(4-Hydroxy-2-methoxy-phenyl)-3-methyl-1H-pyrazolo[3,4-b]pyridin-4-yl]-piperazin-1-yl-methanone]",
88%,"Cc1n[nH]c2nc(-c3ccc(O)cc3)cc(C(=O)NC3CCN(C)CC3)c12 [Example 220, 6-(4-Hydroxy-phenyl)-3-methyl-1H-pyrazolo[3,4-b]pyridine-4-carboxylic acid (1-methyl-piperidin-4-yl)-amide]",
68%,"Cc1n[nH]c2nc(-c3ccc(O)c(F)c3)cc(C(=O)N3CC[C@@H](C4(N)CC4)C3)c12 [Example 322, [(R)-3-(1-Amino-cyclopropyl)-pyrrolidin-1-yl]-[6-(3-fluoro-4-hydroxy-phenyl)-3-methyl-1H-pyrazolo[3,4-b]pyridin-4-yl]-methanone]",
95%,"Cc1n[nH]c2nc(-c3ccc(O)cc3)cc(C(=O)N3CCNC[C@@H]3c3ccccc3)c12 [Example 27, [6-(4-Hydroxy-phenyl)-3-methyl-1H-pyrazolo[3,4-b]pyridin-4-yl]-((S)-2-phenyl-piperazin-1-yl)-methanone]",
95%,"CCC[C@H]1CN(C(=O)c2cc(-c3ccc(O)cc3F)nc3[nH]nc(C)c23)CCN1 [Example 422, [6-(2-Fluoro-4-hydroxy-phenyl)-3-methyl-1H-pyrazolo[3,4-b]pyridin-4-yl]-((S)-3-propyl-piperazin-1-yl)-methanone]",
80%,"CCN1CC2CC1CN2C(=O)c1cc(-c2ccc(O)cc2)nc2[nH]nc(C)c12 (stereo not drawn) [Example 268, (5-Ethyl-2,5-diaza-bicyclo[2.2.1]hept-2-yl)-[6-(4-hydroxy-phenyl)-3-methyl-1H-pyrazolo[3,4-b]pyridin-4-yl]-methanone]",
